In ChEMBL document CHEMBL1145791, “Synthesis and biological activity of various derivatives of a novel class of potent, selective, and orally active prostaglandin D2 receptor antagonists. 1. Bicyclo[2.2.1]heptane derivatives” (J Med Chem, 2003):

Tests used:
[1] = target: T1, Prostaglandin D2 receptor (Homo sapiens, UniProt Q13258); test: In vitro inhibition of cAMP formation evoked by prostaglandin D2 receptor in human platelets; format: functional
T1 sequence (Q13258 whole entry): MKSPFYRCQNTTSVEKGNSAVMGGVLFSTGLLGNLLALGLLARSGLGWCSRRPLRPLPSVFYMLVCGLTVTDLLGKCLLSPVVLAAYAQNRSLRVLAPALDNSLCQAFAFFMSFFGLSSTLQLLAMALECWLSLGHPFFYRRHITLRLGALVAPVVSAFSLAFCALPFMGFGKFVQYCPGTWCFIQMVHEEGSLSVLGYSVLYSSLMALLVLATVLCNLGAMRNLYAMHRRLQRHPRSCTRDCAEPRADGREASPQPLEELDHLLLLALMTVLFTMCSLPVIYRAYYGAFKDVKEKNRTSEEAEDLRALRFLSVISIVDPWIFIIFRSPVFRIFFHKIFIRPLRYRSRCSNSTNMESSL

[2] = target: T1, Prostaglandin D2 receptor; test: In vitro inhibition of [3H]- PGD-2 radioligand binding to prostaglandin D2 receptor on human platelet membrane
Cavia porcellus [3] = test: In vivo inhibition of antigen induced increase in intranasal pressure in actively sensitized guinea pig after an intravenous dose of 1 mg/kg; format: functional
Cavia porcellus [4] = test: In vivo inhibition of antigen induced increase in intranasal pressure in actively sensitized guinea pig after dose of 10 mg/kg; format: functional; settings: for inhibition in vivo at 10 mg/kg: Cavia porcellus
Cavia porcellus [5] = test: Inhibition of increase in specific airway resistance by antigen inhalation in conscious guinea pig at a dose of 10 mg/kg administered perorally 1 hr before challenge in asthma model; format: functional; settings: route oral

Structure (SMILES) | IC50 [1] [nM] | IC50 [2] [nM] | also measured
O=C(O)CCC/C=C\C[C@@H]1[C@H]2CC[C@H](C2)[C@H]1NS(=O)(=O)c1ccc2sc3ccccc3c2c1 | 180 | 64 | inhibition in vivo at 1 mg/kg (Cavia porcellus [3]): 31%
Cn1c(-c2ccccc2)cc2ccc(S(=O)(=O)N[C@@H]3[C@@H]4CC[C@@H](C4)[C@H]3C/C=C\CCCC(=O)O)cc21 | 190 | 380 | –
O=C(O)CCC/C=C\C[C@@H]1[C@H]2CC[C@H](C2)[C@H]1NS(=O)(=O)c1ccc2oc3ccc(O)cc3c2c1 | 250 | 200 | –
CC(C)(C)c1ccc(S(=O)(=O)N[C@@H]2[C@@H]3CC[C@@H](C3)[C@H]2C/C=C\CCCC(=O)O)cc1 | 720 | > 10000 | –
COc1ccc(S(=O)(=O)N[C@@H]2[C@@H]3CC[C@@H](C3)[C@H]2C/C=C\CCCC(=O)O)cc1[N+](=O)[O-] | 280 | 5400 | –
Cc1cc(C)c(S(=O)(=O)N[C@@H]2[C@@H]3CC[C@@H](C3)[C@H]2C/C=C\CCCC(=O)O)c(C)c1 | 130 | 5400 | –
CC(C)(CC/C=C\C[C@@H]1[C@H]2CC[C@H](C2)[C@H]1NS(=O)(=O)c1ccc2oc3ccccc3c2c1)C(=O)O | 320 | 180 | –
CS(=O)(=O)NC(=O)CCC/C=C\C[C@@H]1[C@H]2CC[C@H](C2)[C@H]1NS(=O)(=O)c1ccc2oc3ccccc3c2c1 | 32 | 42 | –
O=C(O)CCC/C=C\C[C@@H]1[C@H]2CC[C@H](C2)[C@H]1NS(=O)(=O)c1ccc2cc(-c3ccc(O)cc3)[nH]c2c1 | 25 | 18 | inhibition in vivo at 1 mg/kg (Cavia porcellus [3]): 42%
O=C(O)CCC/C=C\C[C@@H]1[C@H]2CC[C@H](C2)[C@H]1NS(=O)(=O)c1ccc2oc3ccccc3c2c1 | – | – | inhibition in vivo at 10 mg/kg (Cavia porcellus [4]): 75%
O=C(O)CCC/C=C\C[C@@H]1[C@H]2CC[C@H](C2)[C@H]1NS(=O)(=O)c1ccc2oc3cc([N+](=O)[O-])ccc3c2c1 | 57 | 550 | –
O=C(O)CCC/C=C\C[C@@H]1[C@H]2CC[C@H](C2)[C@H]1NS(=O)(=O)c1ccc(Nc2ccccc2)cc1 | 160 | 330 | –
O=C(O)CCC/C=C\C[C@@H]1[C@H]2CC[C@H](C2)[C@H]1NS(=O)(=O)c1ccc(-c2cc3ccccc3[nH]2)cc1 | 210 | 190 | –
O=C(O)CCC/C=C\C[C@@H]1[C@H]2CC[C@H](C2)[C@H]1NS(=O)(=O)c1ccc2cc(-c3ccccc3)[nH]c2c1 | 71 | – | –
O=C(O)CCC/C=C\C[C@@H]1[C@H]2CC[C@H](C2)[C@H]1NS(=O)(=O)c1ccc(/C=C\c2ccccc2)cc1 | 180 | 200 | –
O=C(O)CCC/C=C\C[C@@H]1[C@H]2CC[C@H](C2)[C@H]1NS(=O)(=O)c1ccc2[nH]c3ccccc3c2c1 | 22 | 22 | inhibition in vivo at 1 mg/kg (Cavia porcellus [3]): -9%
O=C(O)CCC/C=C\C[C@@H]1[C@H]2CC[C@H](C2)[C@H]1NS(=O)(=O)c1ccc(Oc2ccccc2)cc1 | 570 | 680 | –
O=C(O)CCCCC(=O)C[C@@H]1[C@H]2CC[C@H](C2)[C@H]1NS(=O)(=O)c1ccc2oc3ccccc3c2c1 | 19 | 680 | –
COc1ccc(-c2cc3ccc(S(=O)(=O)N[C@@H]4[C@@H]5CC[C@@H](C5)[C@H]4C/C=C\CCCC(=O)O)cc3[nH]2)cc1 | 45 | 15 | inhibition in vivo at 1 mg/kg (Cavia porcellus [3]): 40%
CN(C)c1ccc2c(c1)oc1ccc(S(=O)(=O)N[C@@H]3[C@@H]4CC[C@@H](C4)[C@H]3C/C=C\CCCC(=O)O)cc12 | 170 | 36 | –
O=C(O)CCC/C=C\C[C@@H]1[C@H]2CC[C@H](C2)[C@H]1NS(=O)(=O)c1cccc(-c2ccccc2)c1 | 280 | 670 | –
O=C(O)CCC/C=C\C[C@@H]1[C@H]2CC[C@H](C2)[C@H]1NS(=O)(=O)c1ccc(C(=O)Nc2ccccc2)cc1 | 86 | 1100 | –
O=C(O)CCC/C=C\C[C@@H]1[C@H]2CC[C@H](C2)[C@H]1NS(=O)(=O)c1ccc(-c2cccs2)s1 | 200 | 410 | –
COc1ccc2oc3ccc(S(=O)(=O)N[C@@H]4[C@@H]5CC[C@@H](C5)[C@H]4C/C=C\CCCC(=O)O)cc3c2c1 | 330 | 34 | –

Structure (SMILES) | IC50 [1] [nM] | IC50 [2] [nM] | also measured
COc1cc2c(cc1S(=O)(=O)N[C@@H]1[C@@H]3CC[C@@H](C3)[C@H]1CC(=O)CCCCC(=O)O)oc1ccccc12 | 33 | 960 | –
O=C(O)CCC/C=C\C[C@@H]1[C@H]2CC[C@H](C2)[C@H]1NS(=O)(=O)c1ccc(-c2ccc(C(F)(F)F)cc2)cc1 | 350 | 660 | –
O=C(O)CCC/C=C\C[C@@H]1[C@H]2CC[C@H](C2)[C@H]1NS(=O)(=O)c1ccc(C#Cc2ccccc2)cc1 | 210 | 8.5 | –
O=C(O)CCC/C=C\C[C@@H]1[C@H]2CC[C@H](C2)[C@H]1NS(=O)(=O)c1ccc(/C=C/c2ccccc2)s1 | 100 | 90 | –
CCOc1cc2c(cc1S(=O)(=O)N[C@@H]1[C@@H]3CC[C@@H](C3)[C@H]1C/C=C\CCCC(=O)O)oc1ccccc12 | 34 | 32 | inhibition in vivo at 10 mg/kg (Cavia porcellus [4]): 53%
O=C(O)CCC/C=C\C[C@@H]1[C@H]2CC[C@H](C2)[C@H]1NS(=O)(=O)c1ccc2c(c1)Cc1ccccc1-2 | > 1000 | – | –
O=C(O)CCC/C=C\C[C@@H]1[C@H]2CC[C@H](C2)[C@H]1NS(=O)(=O)c1ccc(/N=N/c2ccccc2)cc1 | – | 25 | –
O=C(O)CCC/C=C\C[C@@H]1[C@H]2CC[C@H](C2)[C@H]1NS(=O)(=O)Cc1ccc(-c2ccccc2)cc1 | > 1000 | 8600 | –
COc1ccc(S(=O)(=O)N[C@@H]2[C@@H]3CC[C@@H](C3)[C@H]2C/C=C\CCCC(=O)O)cc1 | 390 | > 10000 | –
O=C(O)CCC/C=C\C[C@@H]1[C@H]2CC[C@H](C2)[C@H]1NS(=O)(=O)c1cc2oc3ccccc3c2cc1O | 180 | 190 | –
COc1ccc(-c2ccc(S(=O)(=O)N[C@@H]3[C@@H]4CC[C@@H](C4)[C@H]3C/C=C\CCCC(=O)O)cc2)cc1 | 200 | 450 | –
O=C(O)CCC/C=C\C[C@@H]1[C@H]2CC[C@H](C2)[C@H]1NS(=O)(=O)c1ccccc1-c1ccccc1 | – | 8600 | –
O=C(O)CCC/C=C\C[C@@H]1[C@H]2CC[C@H](C2)[C@H]1NS(=O)(=O)c1ccc(NC(=O)c2ccccc2)cc1 | 120 | 6000 | –
COc1cc2c(cc1S(=O)(=O)N[C@@H]1[C@@H]3CC[C@@H](C3)[C@H]1C/C=C\CCC(C)(C)C(=O)O)oc1ccccc12 | 320 | 57 | –
O=C(O)CCC/C=C\C[C@@H]1[C@H]2CC[C@H](C2)[C@H]1NS(=O)(=O)c1ccc(Cc2ccccc2)cc1 | 650 | 5200 | –
O=C(O)CCC/C=C\C[C@@H]1[C@H]2CC[C@H](C2)[C@H]1NS(=O)(=O)c1ccc(-c2nnnn2-c2ccccc2)cc1 | 380 | 62 | –
O=C(O)CCCCCC[C@@H]1[C@H]2CC[C@H](C2)[C@H]1NS(=O)(=O)c1ccc2oc3ccccc3c2c1 | 430 | 120 | –
O=C(O)CCC/C=C\C[C@@H]1[C@H]2CC[C@H](C2)[C@H]1NS(=O)(=O)c1ccc(/C=C/c2ccccc2)cc1 | 180 | 100 | –
O=C(O)CCC/C=C\C[C@@H]1[C@H]2CC[C@H](C2)[C@H]1NS(=O)(=O)c1ccc(CCc2ccccc2)cc1 | 260 | 550 | –
O=C(O)CCC/C=C\C[C@@H]1[C@H]2CC[C@H](C2)[C@H]1NS(=O)(=O)c1ccccc1Br | 340 | 5300 | –
O=C(O)CCC/C=C\C[C@@H]1[C@H]2CC[C@H](C2)[C@H]1NS(=O)(=O)c1ccc2c(c1)oc1ccccc12 | 160 | 22 | –
COc1cc2c(cc1S(=O)(=O)N[C@@H]1[C@@H]3CC[C@@H](C3)[C@H]1C/C=C\CCCC(=O)O)oc1ccccc12 | 52 | 24 | Inhibition (Cavia porcellus [4]; 10 mg/kg): 82%; inhibition in vivo at 10 mg/kg (Cavia porcellus [4]): 81%; inhibition in vivo at 10 mg/kg (Cavia porcellus [5]): 42%
O=C(O)CCC/C=C\C[C@@H]1[C@H]2CC[C@H](C2)[C@H]1NS(=O)(=O)c1ccc(-c2ccccc2)s1 | 220 | 580 | –
